Data set [1] deals with T1, recombinant catalytic domain of ADAM17 (Homo sapiens, UniProt P78536).
T1 construct: catalytic domain (aa Pro-18 to Val-477) of ADAM17; purchased Enzo Life Sciences GmbH (Lörrach, Germany)
Description: In vitro cleavage assay of IL-6R (glyco)peptides with recombinant ADAM17. To be noted: 50 μM peptide, 25 mM Hepes pH 9.0, 16 h, 37°C, RP chromatography. As for the experimental part:
(§1) Fig 7 The N- and O-glycosylated sequon adjacent to the cleavage site is of minor importance for IL-6R cleavage. (A) Amino-acid sequence of the two unglycosylated peptides 1(QD) and 2(QA). Peptides were incubated either with or without recombinant ADAM17 for 16 h at 37°C, and the amount of cleaved peptide was analyzed by reversed-phase (RP) chromatography. (B) Amino-acid sequence of the two glycopeptides 3(QD) and 4(QA), which have a GlcNAc attached to the amino-acid residue corresponding to Asn-350 of the IL-6R. Cleavage was determined as described in panel (A). (C) Amino-acid sequence of the two glycopeptides 5(QD) and 6(QA), which have a biantennary N-glycan attached to the amino-acid residue corresponding to Asn-350 of the IL-6R. Cleavage was determined as described in panel (A). (D) Amino-acid sequence of the two glycopeptides 7(QD) and 8(QA), which have a GalNAc attached to the amino-acid residue corresponding toThr-352 of the IL-6R. Cleavage was determined as described in panel (A). (E) Amino-acid sequence of the two glycopeptides 9(QD) and 10(QA), which have a biantennary N-glycan attached to the amino-acid residue corresponding to Asn-350 and a GalNAc attached to the amino-acid residue corresponding toThr-352 of the IL-6R. Cleavage was determined as described in panel (A). All data shown are the mean ± SD from three independent experiments (*p < 0.05, **p < 0.01, ***p < 0.001, compared to the untreated peptide; ^§p < 0.05, compared to the cleaved nonglycosylated peptide).
(§2) Two 1.5 ml reaction tubes were filled with 50 μl peptide (50 μM) solved in 25 mM Hepes (pH 9.0), and 0.5 μl of the recombinant catalytic domain of ADAM17 was added to one of the reaction tubes, whereas the other sample remained untreated. All samples were incubated for 16 h at 37°C. Afterwards, 1,150 μl 0.1% TFA was added to each sample, and the peptides were separated on a reverse phase chromatography column (Multo High Bio-200-C18) from Chromatographie Service (Langerwehe, Germany) using a linear gradient elution with a binary solvent system and a flow rate of 1 ml/min. Solvent A consisted of 0.1% TFA, and solvent B consisted of 100% ACN. After peak integration, peak areas for cleaved and noncleaved peptides were determined.

Test in data set [2]: as above
The note with it: human, isolated enzyme; 50 μM peptide, 25 mM Hepes pH 9.0, recombinant catalytic domain of ADAM17, 16 h, 37°C, reverse phase C18 chromatography, peak areas; mean of 3 independent experiments; read-out: intact peptide after incubation with ADAM17 (untreated peptide = 100), mean. As for the experimental part: as §1, §2

The subject of data set [3] is ADAM10 / ADAM17. Description: PMA-induced shedding of IL-6R-5N in HEK293 cells after pretreatment with inhibitors GI or GW, ELISA (Fig 9D). The note with it: HEK293, IL-6R-5N; PMA stimulation, GI or GW given as pretreatment before PMA; mean of n = 3. The data set is classed as cell-based, human. Here is the method:
(§3) Fig 9 An IL-6R devoid of all N-glycans is defective in ADAM17-mediated proteolysis. (A) PMA-mediated ectodomain shedding of IL-6R-5N with a stably transduced Ba/F3-gp130 cell line. Data shown are the mean ± SD from three independent experiments compared to wild-type IL-6R. (B) HEK293 cells were transiently transfected with a cDNA encoding wild-type IL-6R. Cells were pretreated with the ADAM10-specific inhibitor GI or the combined ADAM10/ADAM17-specific inhibitor GW for 30 min and then stimulated with 100 nM PMA for 2 h as indicated. The amount of sIL-6R in the cell supernatant was determined by ELISA. One out of three experiments with similar outcomes is shown (mean ± SD, n = 3). (C) The experiment was performed as described under (B), but sIL-6R was precipitated from cell supernatant and analyzed by western blot. Furthermore, the cells were lysed, and IL-6R expression in the lysates was also determined by western blot. β-actin served as loading control. […] (D, E) The experiment was performed as described in […], but HEK293 cells were transiently transfected with a cDNA encoding IL-6R-5N. nd, not detected. (F) Cell-surface expression of the IL-6R-5N variant on transiently transfected HEK293 cells analyzed via flow cytometry (black histogram). […] The expression of all proteins (input) and the interaction of the IL-6R variants with MPD17-CANDIS were analyzed via western blot. […]

The subject of data set [4] is ADAM10 / ADAM17. Description: PMA-induced shedding of wild-type IL-6R in HEK293 cells after pretreatment with inhibitors GI or GW, ELISA (Fig 9B). To be noted: HEK293, wild-type IL-6R; PMA stimulation, GI or GW given as pretreatment before PMA; mean of n = 3. The data set is classed as cell-based, human. Here is the method:
as §3

Each structure is given as a SMILES string. Residues, ends and D or L forms follow the SMILES beside them. *: point of attachment. X1 = CC(=O)N[C@@H]1[C@@H](O)[C@H](O[C@@H]2O[C@H](CO)[C@@H](O[C@@H]3O[C@H](CO[C@H]4O[C@H](CO)[C@@H](O)[C@H](O)[C@@H]4O[C@@H]4O[C@H](CO)[C@@H](O[C@@H]5O[C@H](CO)[C@H](O)[C@H](O)[C@H]5O)[C@H](O)[C@H]4NC(C)=O)[C@@H](O)[C@H](O[C@H]4O[C@H](CO)[C@@H](O)[C@H](O)[C@@H]4O[C@@H]4O[C@H](CO)[C@@H](O[C@@H]5O[C@H](CO)[C@H](O)[C@H](O)[C@H]5O)[C@H](O)[C@H]4NC(C)=O)[C@@H]3O)[C@H](O)[C@H]2NC(C)=O)[C@@H](CO)O[C@H]1N*; αGalNAc = CC(=O)N[C@@H]1[C@@H](O)[C@@H](O)[C@@H](CO)O[C@@H]1*

T1 sequence (P78536 18-477): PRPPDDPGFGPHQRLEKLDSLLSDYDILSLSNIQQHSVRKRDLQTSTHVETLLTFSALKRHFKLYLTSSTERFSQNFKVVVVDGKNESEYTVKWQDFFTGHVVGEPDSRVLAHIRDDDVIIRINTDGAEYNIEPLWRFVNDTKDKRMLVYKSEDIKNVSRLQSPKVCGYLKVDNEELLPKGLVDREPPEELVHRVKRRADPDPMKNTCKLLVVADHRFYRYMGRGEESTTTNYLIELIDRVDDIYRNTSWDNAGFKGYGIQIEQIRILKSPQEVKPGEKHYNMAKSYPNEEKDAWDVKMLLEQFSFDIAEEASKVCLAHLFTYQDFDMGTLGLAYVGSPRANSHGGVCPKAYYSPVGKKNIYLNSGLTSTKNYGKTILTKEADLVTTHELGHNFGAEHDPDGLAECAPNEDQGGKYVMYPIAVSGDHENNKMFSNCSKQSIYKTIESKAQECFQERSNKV

`CC[C@H](C)[C@H](NC(=O)[C@@H](N)CC(N)=O)C(=O)N[C@@H](CC(C)C)C(=O)N[C@@H](Cc1ccccc1)C(=O)N[C@@H](CCCNC(=N)N)C(=O)N[C@@H](CC(=O)O)C(=O)N[C@@H](CO)C(=O)N[C@@H](C)C(=O)N[C@@H](CC(=O)N[C@@H]1O[C@H](CO)[C@@H](O[C@@H]2O[C@H](CO)[C@@H](O[C@@H]3O[C@H](CO[C@H]4O[C@H](CO)[C@@H](O)[C@H](O)[C@@H]4O[C@@H]4O[C@H](CO)[C@@H](O[C@@H]5O[C@H](CO)[C@H](O)[C@H](O)[C@H]5O)[C@H](O)[C@H]4NC(C)=O)[C@@H](O)[C@H](O[C@H]4O[C@H](CO)[C@@H](O)[C@H](O)[C@@H]4O[C@@H]4O[C@H](CO)[C@@H](O[C@@H]5O[C@H](CO)[C@H](O)[C@H](O)[C@H]5O)[C@H](O)[C@H]4NC(C)=O)[C@@H]3O)[C@H](O)[C@H]2NC(C)=O)[C@H](O)[C@H]1NC(C)=O)C(=O)N[C@@H](C)C(=O)N[C@H](C(=O)N[C@@H](CO)C(=O)N[C@@H](CC(C)C)C(=O)N1CCC[C@H]1C(=O)N[C@H](C(=O)N[C@@H](CCC(N)=O)C(=O)N[C@@H](CC(=O)O)C(=O)N[C@@H](CO)C(=O)N[C@@H](CO)C(=O)N[C@@H](CO)C(=O)N[C@H](C(=O)N1CCC[C@H]1C(=O)N[C@@H](CC(C)C)C(=O)N1CCC[C@H]1C(=O)O)C(C)C)C(C)C)[C@@H](C)O` [5(QD)] (H-NILFRDSAD(X1)ATSLPVQDSSSVPLP-OH; N-terminus and C-terminus assumed): in data set [1], the “cleavage by recombinant ADAM17, in words” value was “blocked cleavage”. In addition, the remaining at 16 h in data set [2] is 102%.

With `CC[C@H](C)[C@H](NC(=O)[C@@H](N)CC(N)=O)C(=O)N[C@@H](CC(C)C)C(=O)N[C@@H](Cc1ccccc1)C(=O)N[C@@H](CCCNC(=N)N)C(=O)N[C@@H](CC(=O)O)C(=O)N[C@@H](CO)C(=O)N[C@@H](C)C(=O)N[C@@H](CC(=O)N[C@@H]1O[C@H](CO)[C@@H](O[C@@H]2O[C@H](CO)[C@@H](O[C@@H]3O[C@H](CO[C@H]4O[C@H](CO)[C@@H](O)[C@H](O)[C@@H]4O[C@@H]4O[C@H](CO)[C@@H](O[C@@H]5O[C@H](CO)[C@H](O)[C@H](O)[C@H]5O)[C@H](O)[C@H]4NC(C)=O)[C@@H](O)[C@H](O[C@H]4O[C@H](CO)[C@@H](O)[C@H](O)[C@@H]4O[C@@H]4O[C@H](CO)[C@@H](O[C@@H]5O[C@H](CO)[C@H](O)[C@H](O)[C@H]5O)[C@H](O)[C@H]4NC(C)=O)[C@@H]3O)[C@H](O)[C@H]2NC(C)=O)[C@H](O)[C@H]1NC(C)=O)C(=O)N[C@@H](C)C(=O)N[C@H](C(=O)N[C@@H](CO)C(=O)N[C@@H](CC(C)C)C(=O)N1CCC[C@H]1C(=O)N[C@H](C(=O)N[C@@H](CCC(N)=O)C(=O)N[C@@H](C)C(=O)N[C@@H](CO)C(=O)N[C@@H](CO)C(=O)N[C@@H](CO)C(=O)N[C@H](C(=O)N1CCC[C@H]1C(=O)N[C@@H](CC(C)C)C(=O)N1CCC[C@H]1C(=O)O)C(C)C)C(C)C)[C@@H](C)O` [6(QA)] (H-NILFRDSAD(X1)ATSLPVQASSSVPLP-OH; N-terminus and C-terminus assumed), in data set [1], the “cleavage by recombinant ADAM17, in words” value is “did not alter processing”. Further, in data set [2], the remaining at 16 h stood at 2.44%.

As for `CC[C@H](C)[C@H](NC(=O)[C@@H](N)CC(N)=O)C(=O)N[C@@H](CC(C)C)C(=O)N[C@@H](Cc1ccccc1)C(=O)N[C@@H](CCCNC(=N)N)C(=O)N[C@@H](CC(=O)O)C(=O)N[C@@H](CO)C(=O)N[C@@H](C)C(=O)N[C@@H](CC(=O)N[C@@H]1O[C@H](CO)[C@@H](O[C@@H]2O[C@H](CO)[C@@H](O[C@@H]3O[C@H](CO[C@H]4O[C@H](CO)[C@@H](O)[C@H](O)[C@@H]4O[C@@H]4O[C@H](CO)[C@@H](O[C@@H]5O[C@H](CO)[C@H](O)[C@H](O)[C@H]5O)[C@H](O)[C@H]4NC(C)=O)[C@@H](O)[C@H](O[C@H]4O[C@H](CO)[C@@H](O)[C@H](O)[C@@H]4O[C@@H]4O[C@H](CO)[C@@H](O[C@@H]5O[C@H](CO)[C@H](O)[C@H](O)[C@H]5O)[C@H](O)[C@H]4NC(C)=O)[C@@H]3O)[C@H](O)[C@H]2NC(C)=O)[C@H](O)[C@H]1NC(C)=O)C(=O)N[C@@H](C)C(=O)N[C@H](C(=O)N[C@@H](CO)C(=O)N[C@@H](CC(C)C)C(=O)N1CCC[C@H]1C(=O)N[C@H](C(=O)N[C@@H](CCC(N)=O)C(=O)N[C@@H](CC(=O)O)C(=O)N[C@@H](CO)C(=O)N[C@@H](CO)C(=O)N[C@@H](CO)C(=O)N[C@H](C(=O)N1CCC[C@H]1C(=O)N[C@@H](CC(C)C)C(=O)N1CCC[C@H]1C(=O)O)C(C)C)C(C)C)[C@@H](C)O[C@H]1O[C@H](CO)[C@H](O)[C@H](O)[C@H]1NC(C)=O` [9(QD)] (H-NILFRDSAD(X1)AT(αGalNAc)SLPVQDSSSVPLP-OH; N-terminus and C-terminus assumed), in data set [1], the “cleavage by recombinant ADAM17, in words” value was “again blocked”. For the same compound, the remaining at 16 h in data set [2] came out at 95.6%.

On to `CNC(=O)[C@@H](NC(=O)[C@H](CCCc1ccccc1)[C@H](C)N(O)C=O)C(C)(C)C` [GI], for which, in data set [3], the “sIL-6R in supernatant (ELISA), Figure 9D, mean” value came to 0. For the same compound, the “sIL-6R in supernatant (ELISA), Figure 9B, mean” value in data set [4] came to 48715.8.

In the case of `CCCCCCCCCCCCCC(=O)O[C@@H]1[C@@H](C)[C@@]2(O)[C@@H](C=C(CO)C[C@]3(O)C(=O)C(C)=C[C@@H]23)[C@@H]2C(C)(C)[C@]12OC(C)=O` [PMA, phorbol-12-myristate-13-acetate], in data set [3], the “sIL-6R in supernatant (ELISA), Figure 9D, mean” value worked out at 0. Besides, in data set [4], the “sIL-6R in supernatant (ELISA), Figure 9B, mean” value amounted to 71566.4.

These data come from article PMC5218472 (PLoS Biology, 2017).
